According to patent publication EP4775209A1 (Ascentawits Pharmaceuticals, Ltd., priority 2023, dated 2025):

Legend:
[1] = Phase I clinical trial of AST-3424 in China: blood pharmacokinetics compared with US data; format: in vivo, human; conditions: Chinese and American patients, printed as 'almost lower than'
[2] = Toxicokinetics (D1+D8/21 Days) in monkeys; format: in vivo, cynomolgus monkeys
[3] = Toxicokinetics (D1+D8/21 Days) in rats; format: in vivo, Sprague-Dawley (SD) rats; conditions: AST-3424 3, 10, 30 mg/kg on D1, D8, D22, D29
[4] = tested on: human lung cancer (H460-GFP) subcutaneous CDX model; experiment: Human lung cancer CDX efficacy model (QW×2 regimen); format: in vivo, nude mice; conditions: 15 mg/kg, BIW×4, I.V.; P<0.01
Method: Images of tumor burden in mice were non-invasively collected twice a week by a Fluor Vivo Model 100 imaging system, and the mean value of tumor area in each group was calculated based on imaging analysis results. […] The data from this experiment are the data for the H460 model in Example 3-1 of the aforementioned Patent Application 2 (see Table 5 and Figure 5 of this application).

[5] = tested on: HuPrime® pancreatic cancer PA2637 subcutaneous xenograft model; conditions: Day 36 after first administration, AST-3424 1 mg/kg QD×5, 16 days off
Excerpt: (§1) For the experimental procedures and relevant evaluation indicators of the aforementioned solid tumor animal efficacy models, please refer to Examples 7, 8, and 9 in Patent Application 1, namely PCT/US2016/062114, with Publication No. WO2017/087428 (corresponding to Chinese Application CN201680044608.1, with Publication No. CN108290911B), Examples 3 and 4 in Patent Application 2, namely PCT/CN2021/078115, with Publication No. WO2022178821, and Research Literature 1. The aforementioned non-clinical animal efficacy models (PDX) mentioned in the present application are all similar to those in the aforementioned literatures, and the specific operation procedures thereof are not described herein again.
PA2637 is a HuPrime® xenograft model established from a pancreatic cancer tumor of a patient.
(§2) Efficacy was evaluated based on the relative tumor growth inhibition rate (TGI, %), and safety was evaluated based on animal body weight changes and mortality.

[6] = tested on: HuPrime® lung cancer LU5161 subcutaneous xenograft model; conditions: day 29 after first administration, AST-3424 1 mg/kg QD×5, 16 days off
Excerpt: as §1
LU5161 is a HuPrime® xenograft model established from a lung tumor (small cell lung cancer) of a patient.
as §2

[7] = tested on: HuPrime® lung cancer LU5173 subcutaneous xenograft model; conditions: day 32 after first administration, AST-3424 1 mg/kg QD×5, 16 days off
Excerpt: as §1
The LU5173 is a HuPrime® xenograft model established from a lung cancer (small cell lung carcinoma) tumor of a patient.
Efficacy was evaluated based on the relative tumor growth inhibition (TGI, %), and safety was evaluated based on animal body weight changes and mortality.

[8] = tested on: HuPrime® pancreatic cancer PA1170 subcutaneous xenograft model; experiment: Pancreatic cancer PA1170 subcutaneous xenograft efficacy model; format: in vivo, BALB/c nude mice; conditions: 50 mg/kg, QD×30
[9] = tested on: HuPrime® pancreatic cancer PA9451 subcutaneous xenograft model; experiment: Pancreatic cancer PA9451 subcutaneous xenograft efficacy model; format: in vivo, BALB/c nude mice; conditions: 50 mg/kg, QD×30

With `O=P(O)(N1CC1)N1CC1` [AST-2660] the “concentrations after 8 hours” value [1] was “lower than 1 ng/ml”, the “exposure to AST-2660 as % of the AST-3424 exposure” value ([2]; Day 1) was 27.2% and the “exposure to AST-2660 as % of the AST-3424 exposure” value ([2]; Day 29) was 11.0%. For the same molecule, the “exposure on Day 29 compared to Day 1” value [3] was “decreased”.
For `CC(=O)O[C@H]1C(=O)[C@@]2(C)[C@H]([C@H](OC(=O)c3ccccc3)[C@]3(O)C[C@H](OC(=O)[C@H](O)[C@@H](NC(=O)c4ccccc4)c4ccccc4)C(C)=C1C3(C)C)[C@]1(OC(C)=O)CO[C@@H]1C[C@@H]2O` [Taxol, reference compound], the TGI [4] was 64%.
With `O=P1(NCCCl)OCCCN1CCCl` (stereo not drawn) [ifosfamide, reference compound] the “TGI (%)” value ([5]; QD×5 (P < 0.001), ifosfamide 60 mg/kg QD×5/week for 2 weeks (no statistical difference)) was 2.74%, the mean tumor volume ([5]; QD×5, ifosfamide 60 mg/kg QD×5/week for 2 weeks, vehicle 977.46) was 938.33 mm^3 and the “TGI (%)” value ([6]; QD×5 (P < 0.001), ifosfamide 60 mg/kg QD×5/week for 2 weeks (p > 0.05)) was 27.39%. The mean tumor volume ([6]; QD×5, ifosfamide 60 mg/kg QD×5/week for 2 weeks, negative control 2238.97) was 1636.39 mm^3, the “TGI (%)” value ([7]; QD×5 (P < 0.001), ifosfamide 6.0 mg/kg QD×5/week for 2 weeks (p > 0.05)) was 44.45% and the mean tumor volume ([7]; QD×5, ifosfamide 6.0 mg/kg QD×5/week for 2 weeks, vehicle 2276.68) was 1229.15 mm^3.
In the case of `O=C(c1cc(Cc2n[nH]c(=O)c3ccccc23)ccc1F)N1CCN(C(=O)C2CC2)CC1` [olaparib, reference compound], the “TGI (%)” value ([8]; Day 30, P > 0.05) is reported as 57.66%, the mean tumor volume ([8]; Day 30 after first administration) is reported as 517.75 mm^3 and the “TGI (%)” value ([9]; Day 36, P < 0.001) is reported as 47.88%. For the same molecule, the mean tumor volume ([9]; Day 36 after first administration) was 344.84 mm^3.
